Where two headings read alike, the source gives them in different places.
Key:
[1] = system: adult subjects with documented transfusional iron overload; experiment: Safety: ongoing randomized open-label study, 16 or 32 mg/kg/day, transfusional iron overload; type: in vivo, human
Method: This study is an ongoing multicenter, randomized, open-label study of adult subjects with documented transfusional iron overload in need of chelation therapy. Subjects received investigational product for 24 weeks with an extension of 72 weeks for the evaluation of long-term safety and efficacy. Subjects were stratified according to transfusional iron intake (transfusion burden) then randomized to receive Compound 1 at 16 or 32 mg/kg/day. The investigational product was administered orally once daily for 24 weeks. At the conclusion of the 24-week dosing period, qualified subjects were allowed to continue receiving Compound 1 for an additional 72 weeks. Dose adjustments from 24 weeks onward are permitted if clinically indicated. Fifty-one subjects enrolled and completed the first 24 weeks of the study; 49 subjects entered the 72-week extension.

[2] = Preliminary analysis of pharmacokinetic results from the clinical studies as a whole; type: in vivo, human
Source text: The results were similar across the common doses in the 4 studies. […] See also FIG. 10.

[3] = Example 5: single-dose study in iron-overloaded human subjects (PK); type: in vivo; conditions: for Tmax / AUC(0-inf) / AUC(0-t) / Cmax / half-life: human, plasma
Method: Example 5 was a single-dose, escalating study in iron-overloaded subjects. Men between the ages of 18-50 years qualified to participate if they were able to voluntarily give consent and had transfusional overload requiring treatment with an iron chelator and were willing to discontinue their chelation for a period of at least 7 days prior to screening and during the study. Eligible subjects had serum ferritin levels>300 ng/mL and ≦5000 ng/mL. Subjects had blood pressure in the normal range, ECG within normal limits and tested negative for drugs of abuse. Subjects were also HIV and Hepatitis B negative and agreed to use an approved method of contraception during the study.
The objectives of this study were to assess the safety, tolerability, and pharmacokinetics of ascending single doses of Compound 1. Additionally, dose proportionality and pharmacodynamics of Compound 1 were assessed. Four doses of Compound 1 (6, 10, 16, and 32 mg/kg), in capsule form, were evaluated in this study. Each dose level was tested in a single subject, with appropriate evaluation of safety done prior to escalating the dose. Following screening, the first subject was dosed and then confined to the clinical research unit for 24 hours to conduct safety and pharmacokinetic assessments. The subject was released from the clinic on Day 2 and returned daily for follow-up visits for 5 days post-dosing. This process was followed for each dose level.
All 4 subjects who received a dose of Compound 1 were included in the analysis of pharmacokinetic parameters.

[4] = single oral dose 6 mg/kg, subject 1
[5] = single oral dose 10 mg/kg, subject 2
[6] = single oral dose 16 mg/kg, subject 3
[7] = single oral dose 32 mg/kg, subject 4

Structure (SMILES): COCCOCCOCCOc1cccc(C2=N[C@@](C)(C(=O)O)CS2)c1O [Compound 1, (S)-4,5-Dihydro-2-[2-hydroxy-3-(3,6,9-trioxadecyloxy)phenyl]-4-methyl-4-thiazolecarboxylate magnesium hydroxide]
- TEAE headache ([1]; 5 subjects): 9.8%
- TEAE increased transaminases ([1]; 8 subjects): 15.7%
- Treatment-related gastrointestinal TEAEs ([1]; 17 subjects): 33.3%
- subjects with at least 1 related TEAE ([1]; 31/51 subjects): 61%
- Elevations in transaminases ([1]; 72 week treatment period): not significant
- Mean serum creatinine ([1]; 72 week treatment period, remained in the normal range): did not change from baseline
- TEAE diarrhea ([1]; N=3): 5.9%
- TEAE flatulence ([1]; N=6): 11.8%
- Any TEAE ([1]; Total (N = 51)): 49 (96.1%) N (%)
- Creatinine increase >33% and creatinine <=ULN at 2 consecutive post-baseline visits ([1]; Total (N = 51)): 2 (3.9) N (%)
- Creatinine increase >33% and creatinine >ULN at 2 consecutive post-baseline visits ([1]; Total (N = 51)): 0 N (%)
- Creatinine increase and creatinine >ULN at 2 consecutive post-baseline visits ([1]; Total (N = 51)): 1 (2.0) N (%)
- Serious TEAE ([1]; Total (N = 51)): 5 (9.8%) N (%)
- TEAE Related to Investigational Product ([1]; Total (N = 51)): 31 (60.8%) N (%)
- TEAE Requiring Discontinuation of Study Drug ([1]; Total (N = 51)): 14 (27.5%) N (%)
- serum creatinine levels ([1]; as of Week 48): no trends
- tolerability ([1]; doses tested (8-50 mg/kg/day)): generally well tolerated
- SAEs ([1]; in four subjects, none judged related to treatment): 10 SAEs
- severity of all related TEAEs ([1]; in vivo): mild to moderate
- dose proportionality ([2]; dosing range of 3 to 50 mg/kg, preliminary analysis): dose-proportionality in Cmax and AUC
- Tmax ([2]; human, plasma, oral, in each study): ~1 h
- total fraction of oral dose excreted in urine over 24 hour, average ([3]; 4 dose levels): 39%
- dose proportionality of Cmax and AUC ([3]; 6-32 mg/kg dose range): dose-proportional
- plasma concentrations at 24 hours post-dose ([3]; all subjects, 6, 10, 16 and 32 mg/kg): < 1 % of Cmax
- Tmax ([3]; single oral dose 6 mg/kg (360 mg), subject 1, read-out: tmax): 1 h
- AUC(0-inf) [3, 4]: 46300 ng·h/mL
- AUC(0-t) [3, 4]: 45900 ng·h/mL
- Cmax [3, 4]: 14900 ng/mL
- Tmax ([3]; single oral dose 10 mg/kg (583 mg), subject 2, read-out: tmax): 0.77 h
- AUC(0-inf) [3, 5]: 69700 ng·h/mL
- AUC(0-t) [3, 5]: 69200 ng·h/mL
- Cmax [3, 5]: 35400 ng/mL
- Tmax ([3]; single oral dose 16 mg/kg (1288 mg), subject 3, read-out: tmax): 1 h
- AUC(0-inf) [3, 6]: 122000 ng·h/mL
- AUC(0-t) [3, 6]: 122000 ng·h/mL
- Cmax [3, 6]: 38500 ng/mL
- Tmax ([3]; single oral dose 32 mg/kg (2214.4 mg), subject 4, read-out: tmax): 1 h
- AUC(0-inf) [3, 7]: 159000 ng·h/mL
- AUC(0-t) [3, 7]: 157000 ng·h/mL
- Cmax [3, 7]: 47600 ng/mL
- half-life ([3]; male, oral, 6-32 mg/kg single dose, read-out: terminal half-life, range): 16 to 30 h
- half-life ([3]; male, oral, averaged across all dose levels, read-out: mean t1/2 (converted)): 23.7 h
- Tmax ([3]; male, oral, averaged across all dose levels, read-out: mean tmax): 0.925 h
- total fraction of oral dose excreted in urine over 24 hour ([3]; range across the 4 dose levels): 28-51%
- CL/F [3, 4]: 7.9 L/h
- CL/F [3, 5]: 8.4 L/h
- CL/F [3, 6]: 10.6 L/h
- CL/F [3, 7]: 14.1 L/h

— patent US8993606B2, “Oral formulations for treating metal overload” (FerroKin BioSciences, Inc., priority 2011, dated 2015)
